System: PC3 Tumors (Human Prostate Carcinoma)
Experiment: Treatment of PC3 xenograft tumors in athymic nude mice, tumor volume
Assay type: in vivo
Conditions: dosed twice/week
Protocol: • 1. Animals: • 46 Athymic nude mice (ENVIGO, male, 5-6 weeks old, R #: 4269, PO #: 236172) were used in this study. All mice were ear tagged for identification purposes. • 2. Animal Husbandry: • Upon arrival, animals were examined to ensure that they were healthy. The animals were housed in autoclaved solid floor polycarbonate cages. Housing and sanitation were performed. All animal handling was performed in a laminar flow hood. Animals were housed in filter-topped cages within a HEPA filtered clean room. • 3. Cell Culture and Implantation: • PC3 cell line was obtained from American Type Culture Collection (Manassas, VA). The cells were cultured in 75 cm^2 flask containing Eagle's Minimum Essential Medium supplemented with 10% fetal bovine calf serum (FBS) and incubated at 37° C. in humidified atmosphere of 5% CO2. As cells became 80% confluent, cultures were expanded to 150 cm^2 flasks, and expanded further until sufficient cells were available for injection. • Cancer cells were subcutaneously injected into right flank, 10 million cells/each mouse for PC3 cells. • 4. Assignment to Treatment Groups: • The animals were ear tagged for identification purposes. The animals were assigned to 4 study groups with 10 mice in each group based upon tumor volume. • 5. The mice were dosed twice a week for 6 weeks.
The Paclitaxel was stored at ambient temperature. Lipid nanoparticle (LNP) suspensions were stored at 4° C. Unopened vials were maintained in their original container at 4° C. until ready for use. 50 μl of LNP treatment was drawn via large bore needle (16G needle) from vial. All LNP treatments were allowed to reach room temperature by standing at ambient temperature. There was no heating. The large bore needle was replaced with a small-bore needle (25G) for tumor injection. • 6. Tumor Monitoring: • The xenograft tumors were measured three times a week with a digital caliper. • Tumor volumes were calculated using the formula:
Tumor Volume=length×width×width×½ • 7. Statistical Analysis: • Tumor sizes and body weights were analyzed using Student's t-test. P values <0.05 were considered as statistically significant.

CC(=O)O[C@H]1C(=O)[C@@]2(C)[C@H]([C@H](OC(=O)c3ccccc3)[C@]3(O)C[C@H](OC(=O)[C@H](O)[C@@H](NC(=O)c4ccccc4)c4ccccc4)C(C)=C1C3(C)C)[C@]1(OC(C)=O)CO[C@@H]1C[C@@H]2O [Paclitaxel]
Average Tumor Volume (Mean) (therapy day 0): 108.0 Mm^3 | Average Tumor Volume (Mean) (therapy day 3): 105.7 Mm^3 | Average Tumor Volume (Mean) (therapy day 5): 111.7 Mm^3 | Average Tumor Volume (Mean) (therapy day 7): 129.6 Mm^3 | Average Tumor Volume (Mean) (therapy day 10): 108.4 Mm^3 | Average Tumor Volume (Mean) (therapy day 12): 98.1 Mm^3 | Average Tumor Volume (Mean) (therapy day 14): 84.2 Mm^3 | Average Tumor Volume (Mean) (therapy day 17): 66.6 Mm^3 | Average Tumor Volume (Mean) (therapy day 19): 61.8 Mm^3 | Average Tumor Volume (Mean) (therapy day 21): 56.6 Mm^3 | Average Tumor Volume (Mean) (therapy day 24): 48.7 Mm^3 | Average Tumor Volume (Mean) (therapy day 26): 34.6 Mm^3 | Average Tumor Volume (Mean) (therapy day 28): 31.1 Mm^3 | Average Tumor Volume (Mean) (therapy day 31): 26.6 Mm^3 | Average Tumor Volume (Mean) (therapy day 35): 25.3 Mm^3 | Average Tumor Volume (Mean) (therapy day 38): 24.4 Mm^3 | Average Tumor Volume (Mean) (therapy day 40): 24.2 Mm^3 | Average Tumor Volume (Mean) (therapy day 42): 27.2 Mm^3 | Average Tumor Volume (Mean) (therapy day 45): 17.8 Mm^3

— patent US20230346883A1, “COMPOSITIONS FOR AND METHODS OF TREATMENT WITH MUTANT A1 ADENOSINE RECEPTOR PLASMID cDNAs” (Endacea, Inc., priority 2022, published 2023)
